Test results from patent publication US12011432B2, “Method of modulating ribonucleotide reductase” (CASE WESTERN RESERVE UNIVERSITY, priority 2018, dated 2024).

Assays:
[1] = tested on: Human pancreatic cancer cells (Pancl); experiment: Cancer cell line growth inhibition assay (DNA content); type: cell-based; design: inhibition of growth of Pancl cells: dose or concentration left out as unconfirmed; settings: for IC50: Homo sapiens, Pancreatic cancer cell, 72 h, continuous exposure for three days; for IC50 / activity/potency against growth of Pancl cells (in words): DNA content per well; for inhibition of growth of Pancl cells / activity/potency against growth of Pancl cells (in words): three days
Experimental: Growth inhibition assays were performed in the Translational Research Shared Resource of the Case Comprehensive Cancer Centre. Human pancreatic cancer cells (Pancl) were maintained in standard growth medium consisting of (RPMI1640+10% FBS+2 mM glutamine+100 U/mL penicillin, and […] streptomycin). Cells were monitored and shown to be negative for mycoplasma contamination using the Mycoplasma Detection kit (MycoAlert™, Lonza, Basel, Switzerland). For growth inhibition assays, cells were harvested by trypsinisation and seeded into 96-well tissue culture plates at 2500 cells/mL. The following day, triplicate wells were treated with an appropriate volume of 5x-inhibitor-containing medium. The cells were cultured for 3 additional days at 37° C. in a 5% CO2 humidified incubator. Cell growth was assessed by measuring total DNA content per well using an adaptation of the method of Labarca and Paigen.

blood progenitor cells = settings: previously shown, cited from earlier work

SMILES	IC50 [1] [µM]	inhibition of growth of Pancl cells [1]	melting point	decrease in IC50 over the lead compound NSAH (TP8) ([1]; Pancl cells) [fold]	activity/potency against growth of Pancl cells (in words) [1]	effectiveness against blood progenitor cells versus cancer cell lines (blood progenitor cells)	therapeutic index compared with gemcitabine (blood progenitor cells; same cell-cell comparison)
O=C1Nc2ccccc2/C1=N\NC(=O)c1ccccc1O [TP1, (E)-2-Hydroxy-N′-(2-Oxoindolin-3-Ylidene)Benzohydrazide]	> 10	did not inhibit the growth	–	–	–	–	–
O=C(N/N=C/c1cc(-c2ccccc2)ccc1O)c1ccccc1O [TP2]	2 to 3	–	273.5 to 274.9 °C	–	–	–	–
O=C(N/N=C/c1cc(-c2ccsc2)ccc1O)c1ccccc1O [TP3, (E)-2-Hydroxy-N′-(2-Hydroxy-5-(Thiophen-3-Yl)-Benzylidene)-Benzohydrazide]	2 to 3	–	282.9 to 284.6 °C	–	–	–	–
COc1ccc(-c2ccoc2)c(/C=N/NC(=O)c2ccccc2O)c1O [TP4, (E)-N′-(6-(Furan-3-Yl)-2-Hydroxy-3-Methoxybenzylidene)-2-Hydroxybenzohydrazide]	< 1.5	–	228.3 °C (dec.)	–	–	–	–
COc1ccc(-c2ccccc2)c(/C=N/NC(=O)c2ccccc2O)c1O [TP5, (E)-2-Hydroxy-N′-((3-Hydroxy-4-Methoxy-11,1′-Biphenyll-2-Yl)Methylene)-Benzohydrazide]	< 1.5	–	257.9 to 259.4 °C	–	–	–	–
COc1ccc(-c2ccsc2)c(/C=N/NC(=O)c2ccccc2O)c1O [TP6, (E)-2-Hydroxy-N′-(2-Hydroxy-3-Methoxy-6-(Thiophen-3-Yl)Benzylidene)-Benzohydrazide]	< 1.5	–	229.5 °C	> 2	greatest potency	–	–
Nc1ncnc2c1ncn2-c1ccc(/C=N/NC(=O)c2ccccc2O)cc1 [TP7, (E)-N′-(4-(6-Amino-9H-Purin-9-Yl)Benzylidene)-2-Hydroxybenzohydrazide]	> 10	did not inhibit the growth	229.5 °C	–	–	–	–
O=C(N/N=C/c1c(O)ccc2ccccc12)c1ccccc1O [TP8, (E)-2-Hydroxy-N′-((2-Hydroxynaphthalen-1-Yl)Methylene)-Benzohydrazide]	< 1.5	–	223.8 °C	–	–	much less effective	higher therapeutic index than gemcitabine
COc1ccc(-c2cnc(-c3ccccc3O)s2)cc1 [TP9, 2-(5-(4-Methoxyphenyl)Thiazol-2-Yl)-Phenol]	> 10	did not inhibit the growth	95.2 to 96.8 °C	–	ineffective	–	–
O=C(N/N=C/c1c(O)ccc2ccccc12)c1ccc(-n2ccccc2=O)cc1 [TP10, (E)-N′-((2-Hydroxynaphthalen-1-Yl)Methylene)-4-(2-Oxopyridin-1(2H)-Yl)-Benzohydrazide]	2 to 3	–	258.6 °C	–	–	–	–
O=C(NNC(=O)c1c(O)ccc2ccccc12)c1cccnc1 [TP11, N′-(2-Hydroxy-1-Naphthoyl)-Nicotinohydrazide]	> 10	did not inhibit the growth	227.1 to 228.6 °C	–	–	–	–
O=C(N/N=C/c1cccnc1)c1c(O)ccc2ccccc12 [TP12, (E)-2-Hydroxy-N′-(Pyridin-3-Ylmethylene)-1-Naphthohydrazide]	> 10	did not inhibit the growth	202.8 to 204.5 °C	–	–	–	–
O=C(NNC(=O)c1ccccc1O)c1cccnc1 [TP13, N′-(2-Hydroxybenzoyl)-Nicotinohydrazide]	> 10	did not inhibit the growth	216.6 to 217.7 °C	–	–	–	–
